This is an account of results in patent US6344457B1, “Amino acid derivatives inhibiting extracellular matrix metalloproteinase and TNF alpha release” (Chiesi Farmaceutici S.p.A., priority 1997, dated 2002).

The test system of test [1] is female Balb/c mice (D-galactosamine + LPS shock). The experiment in a line: Inhibition of septic shock. The settings on record: i.p. 30 minutes prior to induction of the shock; survival over 48 hours. Type of test: in vivo. The procedure: Septic shock is induced in female Balb/c mice in accordance with the procedure described by Mohler, K. M. et al. (Nature, 370, 218-220, 1994). Briefly, the shock is induced by i.p. injection of 20 mg of D-galactosamine and i.v. injection of 20 ng of LPS. The survival of the animals is evaluated for the following 48 hours.
The products to be tested are injected i.p. 30 minutes prior to induction of the shock. The compounds according to the invention protect from shock from 10 to 50 mg/kg. For instance, the compound of example 10 protects at 50 mg/kg.

The target in test [2] is 92 kDa gelatinase of human origin (Homo sapiens, UniProt P14780). Nature of the test: Activity on gelatinase, radiomarked gelatin. In kind it is biochemical. As to conditions: test performed with radiomarked gelatin; read-out: C150 (nM) gelatinase 92 kDa*. The method, boiled down:
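Inhibiting concentration (C150) derived from enzyme activity across inhibitor levels of 10^−7 to 10^−12 M. Read-out is soluble peptide released from radiolabelled gelatin by human 92 kDa gelatinase after 16 hours at 37° C.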

In test [3] the target is T1, collagenase of the human monocytic stock U937 (Homo sapiens, UniProt P03956).
T1 construct: the collagenase of the human monocytic stock U937; endogenous in cells; host or cells: U937 human monocytic cell line
T1 sequence (P03956 100-469): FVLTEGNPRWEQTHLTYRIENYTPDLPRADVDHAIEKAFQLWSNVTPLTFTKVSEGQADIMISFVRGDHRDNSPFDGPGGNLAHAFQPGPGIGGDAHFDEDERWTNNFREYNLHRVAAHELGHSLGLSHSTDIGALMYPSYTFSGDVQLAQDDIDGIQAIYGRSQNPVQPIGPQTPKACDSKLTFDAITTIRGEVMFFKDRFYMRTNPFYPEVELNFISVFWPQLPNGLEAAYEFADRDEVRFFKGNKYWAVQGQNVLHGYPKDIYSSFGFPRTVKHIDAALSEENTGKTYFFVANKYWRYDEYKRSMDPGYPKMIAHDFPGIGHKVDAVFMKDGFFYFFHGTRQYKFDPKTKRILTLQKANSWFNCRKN
The experiment in a line: Activity on collagenase. In kind it is biochemical. The settings on record: radiomarked collagen, 27° C., 16 hours; read-out: C150 (nM) collagenase.

The target of test [4] is stromelysine of human origin (Homo sapiens, UniProt P08254). The experiment in a line: Activity on stromelysine. Type of test: biochemical. As to conditions: radiomarked transferrin, 37° C., 16 hours; read-out: C150 (nM) stromelysine. The procedure: The stromelysine was incubated at 37° C. for 16 hours with radiomarked transferrin, and its activity was determined by the release of the soluble peptides produced by the enzymatic breakdown of the transferrin. The inhibiting concentration C150 for each compound was determined by measurement of the activity of the enzyme in the presence of the inhibitor at a concentration ranging between 10^−7 and 10^−12 M (the inhibitor is dissolved in the same manner as for collagenase).
Sequence of stromelysine of human origin (P08254 100-477): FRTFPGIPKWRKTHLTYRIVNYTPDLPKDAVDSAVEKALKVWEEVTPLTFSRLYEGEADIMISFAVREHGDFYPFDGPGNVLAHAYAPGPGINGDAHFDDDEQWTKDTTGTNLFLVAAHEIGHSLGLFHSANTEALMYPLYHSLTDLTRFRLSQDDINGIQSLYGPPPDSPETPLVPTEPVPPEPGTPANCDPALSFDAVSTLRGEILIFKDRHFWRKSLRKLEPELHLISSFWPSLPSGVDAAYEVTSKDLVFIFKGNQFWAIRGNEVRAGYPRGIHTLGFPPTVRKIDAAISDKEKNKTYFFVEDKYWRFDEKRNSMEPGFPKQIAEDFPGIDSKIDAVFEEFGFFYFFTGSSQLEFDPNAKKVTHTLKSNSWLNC

Test [5] has as its system release of TNF from the peritoneal macrophages of mice stimulated by LPS. The experiment in a line: Inhibition of the production of TNF in vitro. In kind it is cell-based. As to conditions: Peritoneal macrophage; mouse peritoneal macrophages, LPS 100 ng/ml; read-out: C150 (μM) TNF.
Test [6] has as its target T2, 72 kDa gelatinase of human origin (Homo sapiens, UniProt P08253).
T2 sequence (P08253 110-660): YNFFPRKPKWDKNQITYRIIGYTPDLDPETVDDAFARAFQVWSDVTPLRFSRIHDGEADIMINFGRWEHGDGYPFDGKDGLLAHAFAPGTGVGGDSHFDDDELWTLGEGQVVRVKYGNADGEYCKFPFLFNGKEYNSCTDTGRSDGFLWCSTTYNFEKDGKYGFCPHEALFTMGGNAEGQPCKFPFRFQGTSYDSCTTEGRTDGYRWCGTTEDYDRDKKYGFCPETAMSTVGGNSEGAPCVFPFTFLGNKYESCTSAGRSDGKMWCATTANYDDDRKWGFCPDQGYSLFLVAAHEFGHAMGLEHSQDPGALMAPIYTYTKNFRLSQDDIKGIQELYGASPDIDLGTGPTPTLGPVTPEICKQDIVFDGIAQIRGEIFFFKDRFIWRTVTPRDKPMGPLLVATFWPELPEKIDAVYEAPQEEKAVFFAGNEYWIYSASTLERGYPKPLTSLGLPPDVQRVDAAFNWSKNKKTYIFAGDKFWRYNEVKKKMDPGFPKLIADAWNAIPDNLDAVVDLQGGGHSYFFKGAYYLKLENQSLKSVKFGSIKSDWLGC
The experiment in a line: Activity on gelatinase, synthetic substrate. Type of test: biochemical. As to conditions: performed on synthetic substrate; read-out: C150 (nM) gelatinase 72 kDa**. The method in brief:
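Human 72 kDa gelatinase incubated 10 min at 37° C; activity followed by fluorescence of Mca-Pro-Leu released from Mca-Pro-Leu-Gly-Leu-Dpa-Ala-Arg-NH2.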

The subject of test [7] is femoral head cartilage of the rat implanted subcutaneously in mice. The experiment in a line: Inhibition of the breakdown of cartilage in vivo. The settings on record: 10 mg/kg i.p. twice a day, 21 days. The procedure:
The activities of the compounds of example 1 and example 10 comparatively to the compound BB16 were determined in a model of breakdown of cartilage in accordance with the operating mode described by Bottomley, K. M. K., Griffith, S. R. J., Rising, T. G., Steward, A. (Brit. J. Pharmacol. 21, 287-289, 1988). Femoral head cartilage of the rat, wrapped in sterile cotton, is implanted subcutaneously on the backs of mice. After 21 days, the mice are euthanized, the cartilages recovered and weighed. The animals are treated each day, twice a day, with one 10-mg/kg dose i.p.

Another test relates to metalloproteinase (MMP). As to conditions: J. Am. Chem. Soc. (1995), 117, 4671-4682; cited from earlier work.

Sequence of 92 kDa gelatinase of human origin (P14780 94-707): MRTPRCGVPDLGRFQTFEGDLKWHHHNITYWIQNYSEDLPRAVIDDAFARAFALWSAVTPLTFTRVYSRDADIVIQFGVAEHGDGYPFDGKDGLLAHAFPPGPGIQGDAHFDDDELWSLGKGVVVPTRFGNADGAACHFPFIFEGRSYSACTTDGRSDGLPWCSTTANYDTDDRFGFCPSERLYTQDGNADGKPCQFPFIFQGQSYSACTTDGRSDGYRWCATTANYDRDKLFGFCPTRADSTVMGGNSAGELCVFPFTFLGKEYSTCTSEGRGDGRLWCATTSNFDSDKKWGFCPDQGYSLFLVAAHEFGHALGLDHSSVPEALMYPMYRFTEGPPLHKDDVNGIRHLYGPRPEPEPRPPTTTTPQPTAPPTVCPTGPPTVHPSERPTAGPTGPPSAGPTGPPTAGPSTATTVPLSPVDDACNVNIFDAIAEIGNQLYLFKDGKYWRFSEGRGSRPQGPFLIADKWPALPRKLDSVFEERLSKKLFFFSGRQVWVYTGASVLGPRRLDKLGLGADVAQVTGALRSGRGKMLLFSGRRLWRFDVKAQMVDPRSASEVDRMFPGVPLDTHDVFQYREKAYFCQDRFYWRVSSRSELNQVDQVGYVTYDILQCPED

As for `CNC(=O)[C@H](Cc1ccc(Cl)cc1)NC(=O)[C@](O)(CC(C)C)[C@H](C)C(=O)NO` [Example 10, N-2(S) [-1(S) (hydroxycarbamoyl)-1 ethyl]-2(S) hydroxy-4-methyl pentanoyl L4-chlorophenylalanine N-methylamide], the “dose that protects from septic shock” value in test [1] turned out to be 50 mg/kg. Further, the IC50 in test [2] amounted to 2 nM; in test [3] it was 4 nM; in test [4], 48 nM; in test [5] it was 0.4 µM; in test [6] it was 1 nM. Besides, in test [7], the “inhibition of weight loss of the cartilage” value was determined as 65%.
As for `CNC(=O)[C@H](Cc1c[nH]c2ccccc12)NC(=O)[C@@](C)(CC(=O)NO)CC(C)C` [compound VI], the “loss of activity (factor) on substitution of the hydrogen with a methyl, compound V versus compound VI” value in the test with metalloproteinase (MMP) is given as 300.
